Data: ChEMBL document CHEMBL4002621, “Novel 12N-substituted matrinanes as potential anti-coxsackievirus agents” (Bioorg Med Chem Lett, 2017)

Columns and labels:
[1] = Cytotoxicity against African green monkey Vero cells assessed as growth inhibition after 48 hrs; type: cell-based; conditions: chlorocebus sabaeus, read-out: TC50
[2] = tested on: Coxsackievirus B3; assay: Antiviral activity against Coxsackievirus B3 (strain Nancy) infected in African green monkey Vero cells assessed as reduction in viral-induced cytopathic effect by Reed and Muench analysis; type: functional; conditions: Enterovirus B
[3] = Antiviral activity against Coxsackievirus B6 (strain Schmitt) infected in African green monkey Vero cells assessed as reduction in viral-induced cytopathic effect by Reed and Muench analysis; type: functional; conditions: Enterovirus B
[4] = tested on: Coxsackievirus A16; assay: Antiviral activity against Coxsackievirus A16 shzh05-1 infected in African green monkey Vero cells assessed as reduction in viral-induced cytopathic effect by Reed and Muench analysis; type: functional; conditions: Enterovirus A, shzh05-1, Vero
[5] = Selectivity index, ratio of TC50 for African green monkey Vero cells to IC50 for Coxsackievirus B3 (strain Nancy) infected in African green monkey Vero cells; type: toxicity; conditions: read-out: Selectivity Index
[6] = Selectivity index, ratio of TC50 for African green monkey Vero cells to IC50 for Coxsackievirus B2 (strain Ohio-1) infected in African green monkey Vero cells; type: toxicity; conditions: read-out: Selectivity Index
[7] = Selectivity index, ratio of TC50 for African green monkey Vero cells to IC50 for Coxsackievirus B5 Faulkner infected in African green monkey Vero cells; type: toxicity; conditions: read-out: Selectivity Index
[8] = Selectivity index, ratio of TC50 for African green monkey Vero cells to IC50 for Coxsackievirus B1 Conn-5 infected in African green monkey Vero cells; type: toxicity; conditions: read-out: Selectivity Index
[9] = Selectivity index, ratio of TC50 for African green monkey Vero cells to IC50 for Coxsackievirus B4 J.V.B infected in African green monkey Vero cells; type: toxicity; conditions: read-out: Selectivity Index
[10] = tested on: Coxsackievirus B1; assay: Antiviral activity against Coxsackievirus B1 Conn-5 infected in African green monkey Vero cells assessed as reduction in viral-induced cytopathic effect by Reed and Muench analysis; type: functional; conditions: Enterovirus B, Conn-5, Vero
[11] = Antiviral activity against Coxsackievirus B2 (strain Ohio-1) infected in African green monkey Vero cells assessed as reduction in viral-induced cytopathic effect by Reed and Muench analysis; type: functional; conditions: Enterovirus B
[12] = tested on: Coxsackievirus B4; assay: Antiviral activity against Coxsackievirus B4 J.V.B infected in African green monkey Vero cells assessed as reduction in viral-induced cytopathic effect by Reed and Muench analysis; type: functional; conditions: Enterovirus B
[13] = Acute toxicity in po dosed Kunming mouse assessed as effect on body weight and survival administered as single dose measured up to 7 days; type: organism-based; conditions: in vivo
[14] = Selectivity index, ratio of TC50 for African green monkey Vero cells to IC50 for Coxsackievirus A16 shzh05-1 infected in African green monkey Vero cells; type: toxicity; conditions: read-out: Selectivity Index
[15] = Selectivity index, ratio of TC50 for African green monkey Vero cells to IC50 for Coxsackievirus B6 (strain Schmitt) infected in African green monkey Vero cells; type: toxicity; conditions: read-out: Selectivity Index
[16] = tested on: Coxsackievirus B5; assay: Antiviral activity against Coxsackievirus B5 Faulkner infected in African green monkey Vero cells assessed as reduction in viral-induced cytopathic effect by Reed and Muench analysis; type: functional; conditions: Enterovirus B

CCCC[C@@H]1[C@H]2CCCN3CCC[C@@H](CN1C(=O)c1cc(OC)c(OC)c(OC)c1)[C@@H]23
CC50 at 48 h [1]: 115 to 200 µM
IC50 [2]: 3.95 µM
IC50 [3]: 3.43 µM
IC50 [4]: 6.17 µM
selectivity ratio [5]: > 50.6
selectivity ratio [6]: 33.7
selectivity ratio [7]: 15.6
selectivity ratio [8]: 23.4
selectivity ratio [9]: 23.4
IC50 [10]: 4.94 µM
IC50 [11]: 3.43 µM
IC50 [12]: 4.94 µM
LD50 at 168 h [13]: 327 mg/kg
selectivity ratio [14]: 18.7
selectivity ratio [15]: 33.7
IC50 [16]: 7.41 µM

CCCC[C@@H]1[C@H]2CCCN3CCC[C@@H](CN1S(=O)(=O)c1ccsc1C(=O)OC)[C@@H]23
CC50 at 48 h [1]: > 200 µM
IC50 [2]: 4.94 µM
selectivity ratio [5]: > 40.5

CCCC[C@@H]1[C@H]2CCCN3CCC[C@@H](CN1S(=O)(=O)c1cccc(C(N)=O)c1)[C@@H]23
CC50 at 48 h [1]: 230 µM
IC50 [2]: 7.47 µM
selectivity ratio [5]: 30.7

CCCC[C@@H]1[C@H]2CCCN3CCC[C@@H](CN1S(=O)(=O)c1sc(NC(C)=O)nc1C)[C@@H]23
CC50 at 48 h [1]: 96.2 µM
IC50 [2]: 2.06 µM
selectivity ratio [5]: 46.7

CCCC[C@@H]1[C@H]2CCCN3CCC[C@@H](CN1C(=O)CC(=O)OC)[C@@H]23
CC50 at 48 h [1]: > 200 µM
IC50 [2]: 46.2 µM
selectivity ratio [5]: > 4.33

CCCC[C@@H]1[C@H]2CCCN3CCC[C@@H](CN1C(=O)c1ccccc1OC(C)=O)[C@@H]23
CC50 at 48 h [1]: 241 µM
IC50 [2]: 14.1 µM
selectivity ratio [5]: 17.1

CCCC[C@@H]1[C@H]2CCCN3CCC[C@@H](CN1C(=O)CCC)[C@@H]23
CC50 at 48 h [1]: 200 µM
IC50 [2]: 32 µM
selectivity ratio [5]: 6.24

CCCC[C@@H]1[C@H]2CCCN3CCC[C@@H](CN1Cc1ccc(C(=O)OC)cc1)[C@@H]23
CC50 at 48 h [1]: 96.2 µM
IC50 [2]: 6.17 µM
selectivity ratio [5]: 15.6

CCCC[C@@H]1[C@H]2CCCN3CCC[C@@H](CN1C(=O)N1CCN(S(C)(=O)=O)C1=O)[C@@H]23
CC50 at 48 h [1]: > 469 µM
IC50 [2]: 52.1 µM
selectivity ratio [5]: > 9

CCCC[C@@H]1[C@H]2CCCN3CCC[C@@H](CN1S(=O)(=O)c1ccsc1C(=O)O)[C@@H]23
CC50 at 48 h [1]: > 200 µM
IC50 [2]: 15 µM
selectivity ratio [5]: > 13.3

CCCC[C@@H]1[C@H]2CCCN3CCC[C@@H](CN1S(=O)(=O)c1cccnc1)[C@@H]23
CC50 at 48 h [1]: 200 to 592 µM
IC50 [2]: 3.99 µM
IC50 [3]: 3.43 µM
IC50 [4]: 7.41 µM
selectivity ratio [5]: > 148
selectivity ratio [6]: > 59.7
selectivity ratio [7]: > 58.3
selectivity ratio [8]: > 99
selectivity ratio [9]: > 58.3
IC50 [10]: 2.02 µM
IC50 [11]: 3.35 µM
IC50 [12]: 3.43 µM
LD50 at 168 h [13]: 330 mg/kg
selectivity ratio [14]: > 27
selectivity ratio [15]: > 58.1
IC50 [16]: 3.43 µM

CCCC[C@@H]1[C@H]2CCCN3CCC[C@@H](CN1C(=O)c1c(C)noc1C)[C@@H]23
CC50 at 48 h [1]: > 556 µM
IC50 [2]: 6.87 µM
selectivity ratio [5]: > 81

CCCC[C@@H]1[C@H]2CCCN3CCC[C@@H](CN1C(=O)c1ccccc1O)[C@@H]23
CC50 at 48 h [1]: 324 µM
IC50 [2]: > 62.3 µM

CCCC[C@@H]1[C@H]2CCCN3CCC[C@@H](CN1S(=O)(=O)c1ccccc1C(N)=O)[C@@H]23
CC50 at 48 h [1]: 276 µM
IC50 [2]: 23.3 µM
selectivity ratio [5]: 11.8

CCCC[C@@H]1[C@H]2CCCN3CCC[C@@H](CN1S(=O)(=O)c1cn(C)cn1)[C@@H]23
CC50 at 48 h [1]: > 200 µM
IC50 [2]: > 66.7 µM

CCCC[C@@H]1[C@H]2CCCN3CCC[C@@H](CN1S(=O)(=O)c1sc(N)nc1C)[C@@H]23
CC50 at 48 h [1]: 233 µM
IC50 [2]: > 53.8 µM

CCCC[C@@H]1[C@H]2CCCN3CCC[C@@H](CN1S(=O)(=O)c1cccc(C#N)c1)[C@@H]23
CC50 at 48 h [1]: 183 µM
IC50 [2]: 1.26 µM
selectivity ratio [5]: 146

CCCC[C@@H]1[C@H]2CCCN3CCC[C@@H](CN1Cc1ccccc1)[C@@H]23
CC50 at 48 h [1]: 96.2 µM
IC50 [2]: > 22.2 µM

CCCC[C@@H]1[C@H]2CCCN3CCC[C@@H](CN1C(=O)CCC(=O)OC)[C@@H]23
CC50 at 48 h [1]: > 200 µM
IC50 [2]: 11.1 µM
selectivity ratio [5]: > 18.1

CCCC[C@@H]1[C@H]2CCCN3CCC[C@@H](CN1S(=O)(=O)c1ccc(C(N)=O)cc1)[C@@H]23
CC50 at 48 h [1]: 331 µM
IC50 [2]: 124 µM
selectivity ratio [5]: 2.68

CCCC[C@@H]1[C@H]2CCCN3CCC[C@@H](CN1S(=O)(=O)c1ccc4oc(=O)ccc4c1)[C@@H]23
CC50 at 48 h [1]: 180 µM
IC50 [2]: 3.21 µM
selectivity ratio [5]: 56

CCCC[C@@H]1[C@H]2CCCN3CCC[C@@H](CN1S(=O)(=O)c1cccs1)[C@@H]23
CC50 at 48 h [1]: 251 µM
IC50 [2]: 19.4 µM
selectivity ratio [5]: 13

CCCC[C@@H]1[C@H]2CCCN3CCC[C@@H](CN1C(=O)c1ccc(OC)cc1)[C@@H]23
CC50 at 48 h [1]: 116 µM
IC50 [2]: 6.17 µM
selectivity ratio [5]: 18.7

CCCC[C@@H]1[C@H]2CCCN3CCC[C@@H](CN1S(=O)(=O)CCN)[C@@H]23
CC50 at 48 h [1]: 280 µM
IC50 [2]: > 64.7 µM

NC(=O)c1ncn([C@@H]2O[C@H](CO)[C@@H](O)[C@H]2O)n1 [RIBAVIRIN]
CC50 at 48 h [1]: 6360 to 40900 µM
IC50 [2]: 379 µM
IC50 [4]: 9620 µM
selectivity ratio [5]: 16.8
selectivity ratio [7]: > 12.3
selectivity ratio [8]: > 17.2
IC50 [11]: > 40900 µM
IC50 [12]: > 40900 µM
selectivity ratio [14]: > 4.3
selectivity ratio [15]: > 19.6
